Data reported in paper PMC11541931, “The structure and function of P5A-ATPases” (Nature Communications, 2024).

Target: T1, CtSpf1 (Thermochaetoides thermophila, UniProt G0S4Z4)
T1 construct: gene CTHT_0032200; full length, last two C-terminal arginines removed; C-terminal TEV site-GGGGS-GFP-His10, tag kept; made in S. cerevisiae PAP1500; in nanodiscs
Experiment: cryo-EM structure, […] A
Details: 1 mM ADP with 2 mM AlF4-, Mg2+; MSP1E3D1 nanodisc, pH 7.5; nucleotide-binding site, E1P-ADP state

T1 sequence (G0S4Z4 entry or part of it): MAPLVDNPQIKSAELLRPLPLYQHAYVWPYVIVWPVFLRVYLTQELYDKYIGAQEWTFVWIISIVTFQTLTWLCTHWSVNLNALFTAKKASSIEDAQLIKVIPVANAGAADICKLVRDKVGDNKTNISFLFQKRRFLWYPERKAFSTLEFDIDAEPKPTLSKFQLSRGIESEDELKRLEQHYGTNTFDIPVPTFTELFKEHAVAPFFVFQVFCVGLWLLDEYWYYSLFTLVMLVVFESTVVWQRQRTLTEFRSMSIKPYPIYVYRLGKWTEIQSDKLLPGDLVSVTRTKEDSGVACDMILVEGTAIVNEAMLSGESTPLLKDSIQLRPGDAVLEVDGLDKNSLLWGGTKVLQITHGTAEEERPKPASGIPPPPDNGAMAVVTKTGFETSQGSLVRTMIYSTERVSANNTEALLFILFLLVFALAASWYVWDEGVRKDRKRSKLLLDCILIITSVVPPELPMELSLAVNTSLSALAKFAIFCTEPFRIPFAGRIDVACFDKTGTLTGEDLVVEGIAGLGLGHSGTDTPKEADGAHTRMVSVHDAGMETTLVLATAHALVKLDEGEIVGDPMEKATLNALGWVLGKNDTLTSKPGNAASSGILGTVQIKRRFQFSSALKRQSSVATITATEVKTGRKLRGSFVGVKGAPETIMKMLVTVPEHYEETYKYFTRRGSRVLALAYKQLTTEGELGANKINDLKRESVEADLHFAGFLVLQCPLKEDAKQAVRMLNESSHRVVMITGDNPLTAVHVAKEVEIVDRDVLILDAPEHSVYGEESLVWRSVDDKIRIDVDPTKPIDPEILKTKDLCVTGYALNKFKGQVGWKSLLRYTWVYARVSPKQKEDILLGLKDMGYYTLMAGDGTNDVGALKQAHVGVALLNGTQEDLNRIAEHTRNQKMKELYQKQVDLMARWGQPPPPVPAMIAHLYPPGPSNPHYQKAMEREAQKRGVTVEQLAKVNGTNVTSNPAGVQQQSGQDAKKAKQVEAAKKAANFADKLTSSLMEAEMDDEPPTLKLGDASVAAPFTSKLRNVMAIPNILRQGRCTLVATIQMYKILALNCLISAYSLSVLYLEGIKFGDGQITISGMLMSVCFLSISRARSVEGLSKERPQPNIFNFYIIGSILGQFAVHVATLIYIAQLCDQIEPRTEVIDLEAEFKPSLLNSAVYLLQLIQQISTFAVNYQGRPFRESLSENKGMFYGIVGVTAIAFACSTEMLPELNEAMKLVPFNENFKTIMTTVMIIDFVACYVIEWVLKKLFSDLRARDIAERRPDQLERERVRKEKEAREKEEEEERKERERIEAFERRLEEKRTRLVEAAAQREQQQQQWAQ

**Q.** Which “cryo-EM structure, 3.4 A” value does the source give for Nc1ncnc2c1ncn2[C@@H]1O[C@H](COP(=O)(O)OP(=O)(O)O)[C@@H](O)[C@H]1O [ADP] here?
**A.** The value was “We retrieved two separate maps with ADP-AlF4^− bound”.
